According to PubChem BioAssay AID179 (DTP/NCI, 2004):
Calls of active or inactive are those of the source.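 How the source made its calls: active means compounds giving half or more protection of infected cells from virus-caused growth loss, again on retest; inactive means the rest.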

System: CEM cells HIV-1 protection, formazan growth assay
Experiment: NCI AIDS Antiviral Assay
Conditions: for IC50: measured here: growth of uninfected CEM cells
Summary of the method: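 Protection of CEM cells against HIV-1 was scored from cell growth (soluble formazan) across five concentrations, with parallel uninfected cells. Lack of protection may reflect toxicity.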

For CC(=O)N(C(C)=O)c1c(N)n(C)c(=O)[nH]c1=O, the outcome was “inactive”.
COc1cc2c[n+](C)c3c(c2cc1OC)Cc1cc2c(cc1-3)OCO2 gave an EC50 of over 19.5 µM and an IC50 of over 19.5 µM.
CCCCN1C(=O)C2c3[nH]c4ccccc4c3C3CCCCC3C2C1=O (mixture of isomers) was tested, and the outcome was “inactive”.
Compound N#Cc1c(N=Cc2ccccc2)c(C(=O)Nc2ccccc2)n2c1CCC2 has an EC50 of over 50.1 µM and an IC50 of over 50.1 µM.
Work on CCOc1ccncc1[N+](=O)[O-] yielded an EC50 of over 200 µM and an IC50 of over 200 µM.
Compound CC(C)n1c(=O)[nH]n(-c2ccccc2)c1=O has an EC50 of over 200 µM and an IC50 of over 200 µM.
CCOc1ccccc1N1C(=O)C(=O)C(c2nc3ccccc3s2)C(=O)C1=O was tested, and the EC50 was over 18.2 µM and the IC50 was over 18.2 µM.
For O=C([O-])C(F)(F)F.[C-]#[O+].[C-]#[O+].[C-]#[O+].[C-]#[O+].[C-]#[O+].[Mn], the EC50 was over 813 µM and the IC50 was 44.7 µM.
In the case of Clc1c(C(Cl)(Cl)Cl)nsc1N1CCCCC1, the EC50 is reported as over 200 µM and the IC50 is reported as 72.4 µM.
Compound Cc1cn(CC2=NCC(C)(C)N2)c(=O)[nH]c1=O has an EC50 of over 200 µM and an IC50 of 93.3 µM.
In the case of CN1c2c(C(=O)Nc3nccs3)nn(-c3ccccc3)c2-c2ccccc2S1(=O)=O, the EC50 is reported as over 22.9 µM and the IC50 is reported as over 22.9 µM.
In the case of Oc1ccc(O)c(Sc2nnc(CCCCCCCCc3nnc(Sc4cc(O)ccc4O)o3)o2)c1, the outcome is reported as “inactive”.
Work on CCN(CC)C(=S)N=Nc1c(O)[nH]c2ccccc12 yielded an EC50 of over 200 µM and an IC50 of 1.1 µM.
COC(=O)/C(=N\N)C(C(=O)C(=O)Nc1cc(Cl)ccc1Cl)c1nc2ccc([N+](=O)[O-])cc2[nH]c1=O (configuration not stated) was tested, and the EC50 was over 182 µM and the IC50 was 83.2 µM.
In the case of Cc1ccc2c(c1)S(=O)(=O)N(C)C(c1ccccc1)=C2, the EC50 is reported as over 18.2 µM and the IC50 is reported as over 18.2 µM.
Compound Nc1ccc(S(=O)(=O)O)cc1[N+](=O)[O-] has an EC50 of over 1150 µM and an IC50 of over 1150 µM.
With O=c1[nH]c(=O)n(C2CC(O)C(CO)O2)cc1C#Cc1cc(F)cc(F)c1 (configuration not stated) the EC50 was over 692 µM and the IC50 was 355 µM.
Work on Cc1cc2c(c(=O)o1)C1=S(SC(c3ccccc3)=C1)S2 (configuration not stated) yielded an EC50 of 75.9 µM and an IC50 of over 200 µM.
For Cc1cc(C)nc(NS(=O)(=O)c2ccc(Nc3c4ccccc4nc4c(C(=O)NNCCO)cccc34)cc2)n1, the EC50 was over 200 µM and the IC50 was 33.1 µM.
With O=C(O)Cc1ccc(Nc2nc3ccccc3nc2C(=O)O)cc1 the EC50 was over 200 µM and the IC50 was over 200 µM.
CCc1ccc(C2=C(O)C(=O)C(c3ccc(CC)cc3)=C(O)C2=O)cc1 was tested, and the EC50 was over 70.8 µM and the IC50 was 9.77 µM.
COc1cc(Br)c(CC2=NCCc3cc(OC)c(OC)cc32)cc1OC was tested, and the outcome was “inactive”.
O=c1cc(C(F)(F)F)c2cc3c4c(c2o1)CCCN4CCC3 showed an EC50 of over 4.68 µM and an IC50 of over 4.68 µM.
Work on CCCC(=O)Oc1ccc2c(C)cc(=O)oc2c1 yielded an EC50 of over 200 µM and an IC50 of over 200 µM.
Work on NC1=NCC(CN2CCOCC2)O1 (configuration not stated) yielded an EC50 of over 200 µM and an IC50 of over 200 µM.
O=C(NCc1ccccc1)c1c(O)c2ccccc2[nH]c1=O showed an EC50 of over 200 µM and an IC50 of over 200 µM.
For COc1ccc2c(=O)c(O)c(-c3ccc(OC)c(OC)c3)oc2c1, the EC50 was over 200 µM and the IC50 was over 200 µM.
COCN1C(=O)[C@@H]2CCCN2C(=O)c2cc(Cl)ccc21 was tested, and the EC50 was over 200 µM and the IC50 was over 200 µM.
Compound CC(=O)N1C(=O)C(C)(C2=CC(=O)c3ccccc3C2=O)c2ccc(Br)cc21 (configuration not stated) has an EC50 of over 200 µM and an IC50 of 2.29 µM.
Work on COC(=O)Nc1nc2ccc(SC)cc2c(=O)[nH]1 yielded an EC50 of over 355 µM and an IC50 of 12.6 µM.
COc1ccc(/C=N/n2c(C)nc3c(sc(=S)n3-c3ccccc3)c2=O)cc1 showed an EC50 of over 12.6 µM and an IC50 of over 12.6 µM.
In the case of O=C(O)C(O)C(O)C(O)C(O)C(O)C(O)CO (configuration not stated), the outcome is reported as “inactive”.
CC1=CC(C)C(=O)N(CCN2CCOCC2)C(C)=C1 (configuration not stated) gave an EC50 of over 955 µM and an IC50 of over 955 µM.
COc1ccc(O[C@H](CO)C[C@@H]2COC(C)(C)O2)cc1 gave an EC50 of over 200 µM and an IC50 of over 200 µM.
OC(c1ccccc1)(c1cccnc1)C(O)(c1ccccc1)c1cccnc1 (configuration not stated) was tested, and the EC50 was over 200 µM and the IC50 was over 200 µM.
CCOC(=O)C(C)(C)Oc1ccc2c(-c3ccc(Cl)cc3)c(-c3ccc(Cl)cc3)c(=O)oc2c1 showed an EC50 of over 7.59 µM and an IC50 of over 7.59 µM.
